A value given as a limit tells only on which side of the number the result lay.

The target of data set [1] is human autotaxin (Homo sapiens (Human), UniProt Q13822). The data set is described as follows: Human autotaxin assay. The class given is biochemical. The settings on record: concentrated conditioned media from Hep3B cells; LPC substrate, choline release.
The subject of data set [2] is MDA-MB-435S human melanoma line. Description: cells. The settings on record: read-out: IC50 cell migration.
Experimental: The day before the assay, cells are serum-starved overnight in media containing 0.1-0.2% fatty-acid-free BSA. On the day of the assay, the conditioned media is removed from the cells, centrifuged for clarification and set aside. The cells are then harvested by scraping, counted, and pelleted by centrifugation. […] The assays are performed in duplicate using the Neuroprobe 96-well chemotaxis system with 8 m pore size and fibronectin-coated filters. 152 μL cells are added to 8 μL test autotaxin inhibitor compound and incubated for 15 min at 37° C. […] The filters are incubated at 37° C. for 1-24 hours and non-migrated cells removed from the top of the filter by rinsing with PBS and scraping. The filter is air dried then stained before reading the absorbance at 580 nm.
Data set [3] deals with ENPP3 (Homo sapiens (Human), UniProt O14638). Description: In vitro ENPP3 inhibition assay. It counts as biochemical.
Data set [4] has as its system Male Wistar rats, DNBS-induced colitis. The data set is described as follows: Rat DNBS-induced acute colitis model. It counts as in vivo. On the procedure:
Male Wistar rats weighing 150-160 g are intracolonically administered 0.5 ml of 50 mg/ml DNBS in 30% ethanol on Day 1 or vehicle control. Autotaxin inhibitors are dosed at 5 mpk in 0.5% MC once daily from Day 0 to Day 6. Sulfasalazine is dosed at 300 mpk in 0.5% CMC-Na from Day 1 to Day 7. The rats are monitored for body weight and stool consistency daily. At study termination, colon length, colon weight, ulcer area and Masson's trichrome staining are assessed.

Data set [5] deals with C57B16/J male mice fed a high fat diet. Description: Glucose tolerance in mice fed a high fat diet. It counts as in vivo, mouse. The settings on record: 15 mg/kg twice daily for two days prior to sampling and once on the day of sampling. How it is done:
C57B16/J male mice are fed a normal diet until 6-10 weeks of age. […] For determination of blood glucose, mice are administered test compound orally in 0.5% methocel once or twice daily for several days prior to the glucose challenge. On the day of the glucose tolerance test (GTT) mice are fasted for 6-8 hours and a last dose of test compound administered orally 1-3 hours before the intraperitoneal (i.p.) injection of 1 g/kg D-glucose (Sigma). Blood from the tail vein is sampled before the glucose load (baseline glucose) and every 15-30 min over the next 120 min after the glucose challenge to monitor blood glucose concentration. Blood glucose is quantified using a glucose meter (Accu-Chek, Roche Diagnostics or AlphaTRAK, Abbott Animal Health) and plotted vs. time. Total blood glucose area under the curve (AUC) after the i.p. glucose challenge is calculated from the time plot using GraphPad Prism6.

Data set [6] addresses ENPP7 (Homo sapiens (Human), UniProt Q6UWV6). Description: In vitro ENPP7 inhibition assay. The class given is biochemical.
For data set [7], the system named is Female C57BL/6 mice, DSS-induced colitis. The data set is described as follows: Mouse DSS-induced chronic colitis model. It counts as in vivo. The settings on record: compared to vehicle. How it is done:
Autotaxin inhibitors are dosed at 30, 60 or 100 mpk PO once or twice daily from Day 0 to 63. For a positive control, Cyclosporin A (CsA) is dosed at 25 mpk on Days 1-7, 22-28, and 43-49. Mouse body weight, stool consistency, bleeding and overall Disease Activity Index (DAI) is recorded daily. After 64 days, mouse colons are removed and their length and weights recorded. Colonic sections are stained with hematoxylin and eosin stain (H&E stain) and scored based on inflammatory cell infiltration and tissue damage. Colonic sections are also stained with trichrome and scored for fibrosis.

In data set [8] the target is ENPP1 (Homo sapiens (Human), UniProt P22413). The data set is described as follows: In vitro ENPP1 inhibition assay. It counts as biochemical.
For data set [9], the system named is dog. The data set is described as follows: Dog liver toxicity study. It counts as in vivo. On the procedure:
In some embodiments, liver toxicity can be assessed in suitable in vivo assays. In some embodiments, liver toxicity is assessed by monitoring any increases in the levels of liver markers ALT, AST, AlkP and bilirubin.

The target of data set [10] is ENPP6 (Homo sapiens (Human), UniProt Q6UWR7). The data set is described as follows: In vitro ENPP6 inhibition assay. It counts as biochemical.
Data set [11] deals with CDAA/HFD fed mice. Description: Mouse CDAA/HFD model of liver fibrosis. It counts as in vivo. How it is done: Mice are fed a choline deficient diet supplemented with 0.1% methionine and 60% kCal fat (CDAA/HFD) for 12-14 weeks. Mice receive 1, 3, 10, or 30 mpk of autotaxin inhibitor test compound or vehicle starting at the beginning of week 6 after feeding (therapeutically). The following liver enzymes are measured weekly: aspartate transaminase, alkaline phosphatase and bilirubin. At the end of the study, mice are sacrificed and the liver harvested and frozen at −80° C. for the biochemical analysis of liver fibrosis or fixed in neutral-buffered formalin for histological assessment of liver fibrosis. For the biochemical assessment of liver fibrosis, liver tissue homogenates are analyzed for collagen concentration using a hydroxyproline assay. For the histological assessment of liver fibrosis, fixed liver tissue is stained with Picrosirius Red (PSR) stain and severity of liver fibrosis scored using light microscopy. After qualitative scoring of liver fibrosis, quantitation of fibrosis was determined using whole slide images captured at 20× magnification and calculating the percentage of the liver section that was PSR-positive using Indica Labs' Halo® area quantification image analysis software.

[12] abbreviates: 5 mpk once daily, DNBS acute colitis.
[13] abbreviates: 5 mpk once daily, similar to sulfasalazine.

ENPP6, sequence (Q6UWR7 23-440, species assumed): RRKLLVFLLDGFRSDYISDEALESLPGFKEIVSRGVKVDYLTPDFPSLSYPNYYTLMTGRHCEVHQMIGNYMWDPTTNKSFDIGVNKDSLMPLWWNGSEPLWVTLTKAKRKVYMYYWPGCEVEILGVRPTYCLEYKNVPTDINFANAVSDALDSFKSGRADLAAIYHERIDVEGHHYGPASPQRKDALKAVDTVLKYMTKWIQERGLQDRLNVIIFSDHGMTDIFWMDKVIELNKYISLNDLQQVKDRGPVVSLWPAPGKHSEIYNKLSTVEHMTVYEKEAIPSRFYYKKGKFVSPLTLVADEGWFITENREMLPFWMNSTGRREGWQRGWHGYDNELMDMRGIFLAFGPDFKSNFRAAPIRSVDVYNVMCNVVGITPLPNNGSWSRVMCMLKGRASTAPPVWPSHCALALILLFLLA
ENPP7, sequence (Q6UWV6 22-458, species assumed): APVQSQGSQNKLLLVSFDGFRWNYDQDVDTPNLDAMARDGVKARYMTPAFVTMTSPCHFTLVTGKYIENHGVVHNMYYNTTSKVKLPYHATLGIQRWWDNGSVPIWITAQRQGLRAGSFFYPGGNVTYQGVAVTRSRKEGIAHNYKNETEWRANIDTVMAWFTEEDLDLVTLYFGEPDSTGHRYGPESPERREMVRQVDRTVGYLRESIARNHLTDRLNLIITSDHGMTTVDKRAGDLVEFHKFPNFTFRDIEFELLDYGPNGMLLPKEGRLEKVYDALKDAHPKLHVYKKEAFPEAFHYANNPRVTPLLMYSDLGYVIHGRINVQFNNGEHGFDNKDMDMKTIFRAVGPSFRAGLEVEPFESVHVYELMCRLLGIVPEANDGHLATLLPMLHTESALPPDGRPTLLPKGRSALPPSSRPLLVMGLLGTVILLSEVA
ENPP3, sequence (O14638 whole entry, species assumed): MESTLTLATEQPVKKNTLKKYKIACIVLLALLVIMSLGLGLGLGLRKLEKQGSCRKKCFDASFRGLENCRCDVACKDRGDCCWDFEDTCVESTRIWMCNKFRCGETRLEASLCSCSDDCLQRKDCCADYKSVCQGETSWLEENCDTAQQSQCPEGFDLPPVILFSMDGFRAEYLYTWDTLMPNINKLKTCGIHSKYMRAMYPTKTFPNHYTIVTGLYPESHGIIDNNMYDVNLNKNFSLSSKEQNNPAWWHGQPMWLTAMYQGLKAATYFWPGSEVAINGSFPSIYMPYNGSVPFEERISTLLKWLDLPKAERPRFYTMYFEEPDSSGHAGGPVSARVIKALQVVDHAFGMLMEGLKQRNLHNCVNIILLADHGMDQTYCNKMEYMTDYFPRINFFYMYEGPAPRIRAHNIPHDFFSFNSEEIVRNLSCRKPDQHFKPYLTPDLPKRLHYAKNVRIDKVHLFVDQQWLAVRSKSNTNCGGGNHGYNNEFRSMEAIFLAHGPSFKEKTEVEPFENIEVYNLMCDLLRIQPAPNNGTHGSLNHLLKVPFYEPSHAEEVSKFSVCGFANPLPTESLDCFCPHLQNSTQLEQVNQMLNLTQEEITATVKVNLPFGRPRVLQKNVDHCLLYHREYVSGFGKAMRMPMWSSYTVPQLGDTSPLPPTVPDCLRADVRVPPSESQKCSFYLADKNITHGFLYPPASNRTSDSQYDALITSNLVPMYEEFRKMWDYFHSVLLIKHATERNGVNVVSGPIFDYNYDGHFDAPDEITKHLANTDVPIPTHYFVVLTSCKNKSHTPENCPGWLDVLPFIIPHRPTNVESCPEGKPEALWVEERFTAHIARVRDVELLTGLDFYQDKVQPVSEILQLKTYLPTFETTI
ENPP1, sequence (P22413 whole entry, species assumed): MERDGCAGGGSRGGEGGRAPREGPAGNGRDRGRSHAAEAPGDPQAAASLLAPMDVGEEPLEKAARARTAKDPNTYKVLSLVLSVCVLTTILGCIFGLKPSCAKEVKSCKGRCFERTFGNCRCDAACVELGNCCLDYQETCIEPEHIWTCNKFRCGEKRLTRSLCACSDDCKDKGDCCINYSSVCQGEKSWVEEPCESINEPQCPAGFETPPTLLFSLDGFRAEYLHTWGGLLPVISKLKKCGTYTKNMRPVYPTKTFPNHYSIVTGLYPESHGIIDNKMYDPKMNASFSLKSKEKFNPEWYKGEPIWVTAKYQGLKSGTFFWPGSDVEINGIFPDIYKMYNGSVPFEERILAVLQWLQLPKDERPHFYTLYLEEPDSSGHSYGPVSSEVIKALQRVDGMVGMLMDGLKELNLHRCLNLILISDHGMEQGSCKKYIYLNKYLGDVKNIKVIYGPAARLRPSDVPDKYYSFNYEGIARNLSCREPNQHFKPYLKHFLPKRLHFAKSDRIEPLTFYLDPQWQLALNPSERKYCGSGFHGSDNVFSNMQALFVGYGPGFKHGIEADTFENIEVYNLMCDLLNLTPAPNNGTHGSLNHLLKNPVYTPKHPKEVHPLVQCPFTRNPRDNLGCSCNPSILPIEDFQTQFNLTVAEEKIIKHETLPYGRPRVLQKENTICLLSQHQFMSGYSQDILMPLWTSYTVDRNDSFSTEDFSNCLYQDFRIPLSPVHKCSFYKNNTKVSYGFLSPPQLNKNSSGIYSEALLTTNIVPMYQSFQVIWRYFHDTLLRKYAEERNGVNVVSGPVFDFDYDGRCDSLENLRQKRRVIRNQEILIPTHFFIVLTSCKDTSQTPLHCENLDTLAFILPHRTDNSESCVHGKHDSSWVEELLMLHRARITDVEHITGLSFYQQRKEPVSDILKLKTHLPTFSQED

`CCCn1cc(-n2c(Cl)c(Sc3cccc(C(=O)O)n3)c3ccc(Cl)c(F)c32)cn1` [Compound F, 6-((2,6-dichloro-7-fluoro-1-(1-propyl-1H-pyrazol-4-yl)-1H-indol-3-yl)thio)picolinic acid]: in data set [1], the IC50 is under 500 nM.
In [1], `CCCn1cc(-n2c(Cl)c(Sc3cccc(CC(=O)O)c3F)c3ccc(Cl)c(F)c32)cn1` [Compound H, 2-(3-((2,6-dichloro-7-fluoro-1-(1-propyl-1H-pyrazol-4-yl)-1H-indol-3-yl)thio)-2-fluorophenyl)acetic acid] showed an IC50 of under 500 nM.
As for `CCn1cc(-n2c(Cl)c(Sc3cccc(C(=O)O)n3)c3ccc(Cl)c(F)c32)cn1` [Compound G, 6-((2,6-dichloro-1-(1-ethyl-1H-pyrazol-4-yl)-7-fluoro-1H-indol-3-yl)thio)picolinic acid], in data set [1], the IC50 is under 500 nM.
As for `CCn1cc(-n2c(Cl)c(Sc3cccc(CC(=O)O)c3F)c3ccc(Cl)c(F)c32)cn1` [Compound I, 2-(3-((2,6-dichloro-1-(1-ethyl-1H-pyrazol-4-yl)-7-fluoro-1H-indol-3-yl)thio)-2-fluorophenyl)acetic acid], in data set [1], the IC50 is under 500 nM.
In data set [1], `CCn1cc(-n2c(Cl)c(Sc3cccc(C(=O)O)c3F)c3ccc(Cl)c(F)c32)cn1` [Compound E, 3-((2,6-dichloro-1-(1-ethyl-1H-pyrazol-4-yl)-7-fluoro-1H-indol-3-yl)thio)-2-fluorobenzoic acid] showed an IC50 of under 500 nM.
The same measure, in the same setting: to `O=C1C2Cc3c(n(Cc4ccc(F)cc4)c4ccccc34)CN2C(=O)N1CCC1CCNCC1` (centres unmarked) [Compound C, 4-(2-(6-(4-fluorobenzyl)-1,3-dioxo-5,6,11a-tetrahydro-1H-imidazo[1′,5′:1,6]pyrido[3,4-b]indol-2(3H, 5H, 6H)-yl)ethyl)piperidin-1-ium chloride] belongs under 500 nM; to `O=C1C2Cc3c(n(Cc4ccc(F)cc4)c4ccccc34)CN2C(=O)N1CCN1CCNCC1` (centres unmarked) [Compound D, 4-(2-(6-(4-fluorobenzyl)-1,3-dioxo-5,6,11a-tetrahydro-1H-imidazo[1′,5′:1,6]pyrido[3,4-b]indol-2(3H, 5H, 6H)-yl)ethyl)piperazin-1-ium chloride], under 500 nM.
In the case of `CCCn1cc(-n2c(Cl)c(Sc3cccc(C(=O)O)c3F)c3ccc(Cl)c(F)c32)cn1` [Compound B, 3-((2,6-dichloro-7-fluoro-1-(1-propyl-1H-pyrazol-4-yl)-1H-indol-3-yl)thio)-2-fluorobenzoic acid], the IC50 in data set [2] is 15 nM; in [3], over 10 µM; in data set [6], over 10 µM; in data set [8], over 10 µM; in data set [10], over 10 µM. The “effect on colitis by reducing ulcer area” value in [4] (5 mpk once daily Day 0 to Day 6, DNBS rats) was “positive effect”. Also, the body weight loss entry in data set [4] (setting [12]) is recorded as “no significant effect”. In data set [4] (setting [12]), the stool consistency entry is reported as “no significant effect”. The colon weight result in data set [4] (setting [13]) is “reduced”. Besides, the ulcer area entry in [4] (setting [13]) is given as “reduced”. For the same molecule, the baseline glucose result in data set [5] was “decreased”. In [5] (i.p. glucose challenge), the “total blood glucose AUC” value is “decreased”. The colon length result in data set [7] is “significant increase”. Further, in [7], the “colon length, longer than vehicle” value is “at least 30%”. In addition, in data set [9] (dog liver toxicity study), the “liver markers (ALT, AST, AlkP and bilirubin)” value was “did not exhibit the same effects”. In addition, the “increases in liver markers ALT, AST, AlkP and bilirubin” value in [9] (dosed at 100 mpk for 5 days) is recorded as “no increases”. Besides, in data set [11] (10 mpk, liver, CDAA/HFD mice), the “decrease in % PSR positive area” value is reported as “approximately 35%”. In addition, the liver fibrosis result in [11] (10 mpk, therapeutic dosing, CDAA/HFD mice) is “significantly reduced”. In data set [11] (dosed therapeutically, mouse CDAA/HFD model), the “hepatic fibrosis (FIG. 4, percent PSR positive area)” value was “attenuate”.

Source of the values: patent publication US12458627B2, “Autotaxin inhibitors and uses thereof” (DF 2024 IP Acquisition, LLC, priority 2015, dated 2025).
